# According to patent publication US20230167088A1, “1-PYRAZINYLPYRAZOLYL-3-OXYALKYL ACIDS AND THEIR DERIVATIVES, AND THEIR USE FOR CONTROL OF UNDESIRED PLANT GROWTH” (BAYER AKTIENGESELLSCHAFT, priority 2020, published 2023):
# Tests used:
# ALOMY = experiment: Herbicidal post-emergence action 1a (greenhouse pots, visual rating); format: in vivo, Alopecurus myosuroides; conditions: rated visually about 3 weeks after treatment, 100% = plants have died, 0% = like control plants
# Procedure, shortened: (§1)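 Weeds and crops sown in sandy loam in greenhouse pots were sprayed post-emergence at the one-leaf stage (2–3 weeks after sowing) with WP or EC formulations plus 0.5% additive at 600 l/ha water, 320 and/or 80 g/ha. About 3 weeks later damage was rated visually against untreated controls (0% = no effect, 100% = dead).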
# AVEFA [1] = experiment: as above; format: in vivo, Avena fatua; conditions: rated visually about 3 weeks after treatment, 100% = plants have died, 0% = like control plants
# Procedure, shortened: as §1
# SETVI [2] = experiment: as above; format: in vivo, Setaria viridis; conditions: rated visually about 3 weeks after treatment, 100% = plants have died, 0% = like control plants
# Procedure, shortened: as §1
# ABUTH = experiment: as above; format: in vivo, Abutilon theophrasti; conditions: visual rating about 3 weeks after treatment
# Procedure, shortened: as §1
# PHBPU = experiment: as above; format: in vivo, Pharbitis purpurea; conditions: visual rating about 3 weeks after treatment
# Procedure, shortened: as §1
# AVEFA [3] = experiment: Herbicidal pre-emergence action 2a (greenhouse pots, visual scoring); format: in vivo, Avena fatua; conditions: dosage 320 g/ha, visual scoring after about 3 weeks
# Procedure, shortened: (§2)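 Pre-emergence greenhouse pot test: WP or EC formulations sprayed onto covering soil over sown seeds at 600 l/ha water with 0.5% additive, at rates corresponding to 320 g/ha and/or 80 g/ha. Visual % activity versus untreated controls after about 3 weeks (100% = plants dead).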
# DIGSA = experiment: as above; format: in vivo, Digitaria sanguinalis; conditions: dosage 320 g/ha, visual scoring after about 3 weeks
# Procedure, shortened: as §2
# SETVI [4] = experiment: as above; format: in vivo, Setaria viridis; conditions: dosage 320 g/ha, visual scoring after about 3 weeks vs untreated controls
# Procedure, shortened: as §2
# MATIN = experiment: as above; format: in vivo, Matricaria inodora; conditions: dosage 320 g/ha, visual scoring after about 3 weeks vs untreated controls
# Procedure, shortened: as §2
# VIOTR = experiment: as above; format: in vivo, Viola tricolor; conditions: dosage 320 g/ha, visual scoring after about 3 weeks vs untreated controls
# Procedure, shortened: as §2
# VERPE = experiment: as above; format: in vivo, Veronica persica; conditions: dosage 320 g/ha, visual scoring after about 3 weeks vs untreated controls
# Procedure, shortened: as §2
# POAAN = experiment: Herbicidal pre-emergence action 2b (doubly sown, 1280 g/ha); format: in vivo, Poa annua; conditions: doubly sown pots, dosage 1280 g/ha, visual scoring after about 3 weeks
# Procedure, shortened: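 Pots of sandy loam doubly sown with one monocot and one dicot weed species, covered, then soil surface sprayed pre-emergence with WP or EC formulations plus 0.5% additive at 600 l/ha water. Greenhouse-grown about 3 weeks; activity scored visually as % versus untreated controls (100% = dead).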
# harmful plants = experiment: Herbicidal pre-emergence action 2a, summary across species; format: in vivo; conditions: Tables B1 to B15 (320 g/ha and/or 80 g/ha)
# Procedure, shortened: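 Pre-emergence greenhouse test: WP or EC formulations sprayed onto soil covering sown weed and crop seeds, 600 l/ha water with 0.5% additive, at 320 g/ha and/or 80 g/ha. Damage scored visually after about 3 weeks as % versus untreated control (100% = plants dead).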
Compound,Post-emergence action against ALOMY in % (ALOMY; Dosage 320 g/ha) [%],Post-emergence action against AVEFA in % (AVEFA [1]; Dosage 80 g/ha) [%],Post-emergence action against AVEFA in % (AVEFA [1]; Dosage 320 g/ha) [%],Post-emergence action against SETVI in % (SETVI [2]; Dosage 320 g/ha) [%],Post-emergence action against ABUTH in % (ABUTH; dosage 320 g/ha) [%],Post-emergence action against PHBPU in % (PHBPU; dosage 80 g/ha) [%],Post-emergence action against PHBPU in % (PHBPU; dosage 320 g/ha) [%],Pre-emergence action against AVEFA in % (AVEFA [3]) [%],Pre-emergence action against DIGSA in % (DIGSA) [%],Pre-emergence action against SETVI in % (SETVI [4]) [%],Pre-emergence action against MATIN in % (MATIN) [%],Pre-emergence action against VIOTR in % (VIOTR) [%],Pre-emergence action against VERPE in % (VERPE) [%],Pre-emergence action at 1280 g/ha against POAAN in % (POAAN) [%],herbicidal efficacy against harmful plants in the case of pre-emergence treatment (in words) (harmful plants),Post-emergence action against ALOMY in % (ALOMY; Dosage 80 g/ha) [%],Post-emergence action against SETVI in % (SETVI [2]; Dosage 80 g/ha) [%],Post-emergence action against ABUTH in % (ABUTH; dosage 80 g/ha) [%]
COC(=O)[C@@H](C)Oc1nn(-c2cnccn2)c(-c2ccc(F)nc2)c1Cl [Example I-36],100,90,90,100,80,90,90,100,100,100,80,100,100,100,good herbicidal efficacy,,,
C[C@H](Oc1nn(-c2cnccn2)c(-c2cncc(F)c2)c1Br)C(=O)O [Example I-37],100,90,90,90,80,,80,90,100,100,90,100,100,100,good herbicidal efficacy,90,90,80
COC(=O)[C@@H](C)Oc1nn(-c2cnccn2)c(-c2cncc(F)c2)c1Br [Example I-39],100,80,90,80,80,80,90,90,100,100,90,100,100,100,good herbicidal efficacy,90,80,80
COC(=O)[C@@H](C)Oc1nn(-c2cnccn2)c(-c2ccc(F)c(F)c2)c1Br [Example I-45],90,,80,80,80,,90,80,100,100,100,100,80,100,good herbicidal efficacy,90,,
CCOC(=O)COc1nn(-c2cnccn2)c(-c2ccc(F)nc2)c1Cl [Example I-53],,,,,,80,,90,100,100,100,100,90,100,good herbicidal efficacy,,80,80
